What was measured:
[1] = Critical micelle concentration determined by micellar/surfactant based mechanism; type: functional
[2] = Inhibitory concentration required to inhibit aggregation of 50 uM beta-amyloid 1-40 peptide by 50% over 24 hr r incubation, 37 degree C; type: functional

Row | SMILES | Critical micelle concentration [1] [µM] | IC50 [2] [µM]
1 | CCN(CC)CCCOc1ccc(-c2oc3ccccc3c2C(=O)c2ccc(C)cc2)cc1 | 225 | 20
2 | CCN(CC)CCCOc1ccc(-c2cc3ccccc3o2)cc1 | 220 | 78

— ChEMBL document CHEMBL1133794, “3-p-Toluoyl-2-[4'-(3-diethylaminopropoxy)-phenyl]-benzofuran and 2-[4'-(3-diethylaminopropoxy)-phenyl]-benzofuran do not act as surfactants or micelles when inhibiting the aggregation of beta-amyloid peptide” (Bioorg Med Chem Lett, 2001)
